# Experimental data taken from patent publication US20070015742A1, “Porphyrin derivatives” (priority 2003, published 2007).
# Where two headings read alike, the source gives them in different places.
# Assays:
# [1] = in toluene, reference standard whose quantum yield is known; cited from earlier work
# [2] = molar extinction spectrum in THF; assay type: physicochemical
# Excerpt: The absorbance peaks and molar extinction coefficients are shown below in Table 2.
# The Absorbance peaks and molar extinction coefficients are shown below in Table 3.
# The absorbance peaks and molar extinction coefficients are shown below in Table 4.
# [3] = tested on: mouse colon adenocarcinoma cell line Colo26; conditions: colo26 cells; for cell kill on irradiation: irradiation with 100 J cm^-2 white light; for photodynamic activity: 100 J cm^-2 white light
# Description: Evaluation of in vitro Photodvnamic Tumour Cell Kill
# The non-metastasing mouse colon adenocarcinoma cell line Colo26 was maintained in monolayer culture in RPMI 1640 glutamax medium supplemented with 10% heat-inactivated foetal calf serum, 100 U ml^−1 penicillin and 100 mg ml^−1 streptomycin. Cells grown to confluence were separated by trypsinisation to produce a suspension of 1.39 million cells per ml. A sample of 2.16 ml of this cell suspension was diluted to 50 ml with CM10 medium to give suspensions of 60,000 cells per ml. 100 μl of this suspension containing 6000 cells was added to each of the 60 inner wells of two 96-well culture plates. The outer wells of each plate were filled with sterile water. This was done to avoid errors resulting from the loss by evaporation of the rather small volumes of cell culture medium. The cells were incubated at 37° C. and 5% CO2 in a humidified incubator for 24 hours. A further 100 μl of cell culture medium containing a range of concentrations of each photosensitiser and tetrahydoflran (THF) vehicle was then added to groups of six wells. Tetrahydrofuran was chosen as solvent because it is relatively freely miscible with water and a pilot experiment had shown that incubation of cells for 48 hours with 0.5-1% THF had no effect on cell growth. An initial stock solution of 200 μl of each photosensitiser in THF was prepared and this solution used to prepare a series of sub-stock solutions in cell culture medium CM10 for addition to the tumour cell cultures.
# After 20 hours of incubation with the cells, the medium containing the sensitiser and vehicle was removed and the cells washed once with buffer solution at 37° C. before the addition of fresh cell culture medium without photosensitiser or vrhicle. One of the two cell culture plates was then protected from light with aluminium foil and placed alongside the other plate which was irradiated with 100 joules cm^−2 of full-spectrum white light from an Applied Photophysics Irradiator. The light was delivered to the base of the 96-well plate through a glass platform (which served to filter short-wavelength ultraviolet light) as a 20 cm diameter spot. After irradiation both plates were returned to the incubator for a further 18 hours.
# Cell growth inhibition following incubation with each photosensitiser and irradiation was determined using the European Union approved Neutral Red photocyiotoxicity protocol (Annexe II to Directive 2000/33/EC) adapted for visible light irradiation and the use of colo26 cells.
# [4] = concentrations of 0.5 μM and above
Structure (SMILES),singlet oxygen quantum yield of reference [1],"molar extinction coefficient ε ([2]; peak wavelength 456, THF)","molar extinction coefficient ε ([2]; peak wavelength 537, THF)","molar extinction coefficient ε ([2]; peak wavelength 589, THF)","molar extinction coefficient ε ([2]; peak wavelength 659, THF)","molar extinction coefficient ε ([2]; peak wavelength 708, THF)","molar extinction coefficient ε ([2]; peak wavelength 724, THF)",cell kill on irradiation ([3]; 2 μM and above),photodynamic activity [3],"cell kill on irradiation [3, 4]","molar extinction coefficient ε ([2]; peak wavelength 418, THF)","molar extinction coefficient ε ([2]; peak wavelength 502, THF)","molar extinction coefficient ε ([2]; peak wavelength 532, THF)","molar extinction coefficient ε ([2]; peak wavelength 606, THF)","molar extinction coefficient ε ([2]; peak wavelength 668, THF)"
C=Cc1c(C)c2cc3nc(c4c5[n-]c(cc6nc(cc1[n-]2)C(C)=C6CC)c(C)c5C(=O)[C@@H]4C(=O)OC)[C@@H](CCC(=O)OC/C=C(\C)CCC[C@H](C)CCC[C@H](C)CCCC(C)C)[C@@H]3C.[Mg+2] [chlorophyll A],0.6,,,,,,,,,,,,,,
"CCCCCCCCCCCCCCCCOc1ccc(-c2c3nc(c(-c4ccccc4)c4ccc([nH]4)c(C#Cc4ccccn4)c4nc(c(C#Cc5ccccn5)c5ccc2s5)C=C4)C=C3)cc1 [porphyrin (10), 5-(4-hexadecyloxyphenyl)-10-(phenyl)-15,20-(2-ethynylpyridine)-21-thiaporphyrin]",,"378,985 1 mol^−1 cm^−1","24,330 1 mol^−1 cm^−1","40,385 1 mol^−1 cm^−1","6,335 1 mol^−1 cm^−1","11,635 1 mol^−1 cm^−1","13,320 1 mol^−1 cm^−1",approaching total cell kill,photodynamic activity,substantial cell kill,,,,,
"CCCCCCCCCCCCCCCCOc1ccc(C2=C3C=CC(=N3)C(c3ccccc3)=c3ccc([nH]3)=CC3=NC(=CC4=CC=C2S4)C=C3)cc1 [porphyrin (8), 5-(4-hexadecyloxyphenyl)-10-(phenyl)-15,20-H-21-thiaporphryin]",,,,,,,,approaching total cell kill,photodynamic activity,substantial cell kill,"300,000 1 mol^−1 cm^−1","29,800 1 mol^−1 cm^−1","5,300 1 mol^−1 cm^−1","4,900 1 mol^−1 cm^−1","3,000 1 mol^−1 cm^−1"
